Substitutions are numbered along the chain they refer to. Values joined by “and” are separate entries in the source; they are usually repeats but may differ in a detail not shown here. Identical values can stand only once. Like-named read-outs stand apart in the source and are kept apart here.

For assay [1], the target named is mCh-M2(D103A)-FCM (human) (UniProt P08172).
For assay [2], the target named is T1, FlAsH-reacted mCh-M2-FCM in CHO cells (Homo sapiens, UniProt P08172, INS166FLNCCPGCCMEP).
T1 sequence (P08172 with tags, fused parts or gaps): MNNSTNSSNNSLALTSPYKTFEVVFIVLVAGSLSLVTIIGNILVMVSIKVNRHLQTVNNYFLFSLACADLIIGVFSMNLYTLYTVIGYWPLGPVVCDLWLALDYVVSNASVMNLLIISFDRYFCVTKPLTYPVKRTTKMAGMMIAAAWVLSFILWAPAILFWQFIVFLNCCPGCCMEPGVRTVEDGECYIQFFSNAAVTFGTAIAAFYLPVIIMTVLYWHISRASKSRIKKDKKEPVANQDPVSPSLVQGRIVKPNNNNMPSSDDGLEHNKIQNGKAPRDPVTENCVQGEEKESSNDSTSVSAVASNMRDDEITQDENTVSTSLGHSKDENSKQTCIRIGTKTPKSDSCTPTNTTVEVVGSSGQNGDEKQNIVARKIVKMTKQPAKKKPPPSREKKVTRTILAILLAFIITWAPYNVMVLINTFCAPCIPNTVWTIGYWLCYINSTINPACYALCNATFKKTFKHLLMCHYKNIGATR
The assay can be described thus: FRET between FlAsH and mCherry in the sensor, ligand-dependent change in Eapp. Format: cell-based. The following applies: ligand 1 mM.

The target of assay [3] is T2, eGFP-M2 solubilized in digitonin–cholate (Homo sapiens, UniProt P08172).
T2 sequence (P08172 1-466): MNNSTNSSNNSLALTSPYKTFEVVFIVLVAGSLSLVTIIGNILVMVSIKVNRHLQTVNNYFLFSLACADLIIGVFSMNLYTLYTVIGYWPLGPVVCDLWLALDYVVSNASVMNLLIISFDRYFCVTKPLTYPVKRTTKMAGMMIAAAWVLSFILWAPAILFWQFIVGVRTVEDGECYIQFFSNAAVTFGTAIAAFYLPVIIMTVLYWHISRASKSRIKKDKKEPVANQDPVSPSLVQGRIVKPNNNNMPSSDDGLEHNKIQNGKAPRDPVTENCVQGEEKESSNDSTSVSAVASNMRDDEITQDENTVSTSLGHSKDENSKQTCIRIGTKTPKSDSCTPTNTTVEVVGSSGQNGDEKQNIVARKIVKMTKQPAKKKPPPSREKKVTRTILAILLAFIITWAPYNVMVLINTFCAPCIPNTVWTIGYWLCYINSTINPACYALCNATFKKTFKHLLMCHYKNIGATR
The experiment in a line: Time-resolved fluorescence and fluorescence anisotropy of eGFP-tagged M2 receptor. The following applies: eGFP-M2 + carbachol 1 mM. In general terms: Polarisation of emitted light reports the rotation of a fluorescent probe.

In assay [4] the target is T3, copurified heteromer of M2-ECL2+ve and M2-D103A (Homo sapiens, UniProt P08172, D103A/D173R/E172K/E175K).
T3 construct: hexahistidine (His6) (N); made in house; host or cells: co-transfected CHO cells; purified on Ni2+-NTA and anti-FLAG resins
T3 sequence (P08172 1-466 E172K/D173R/E175K): T2 sequence (P08172 1-466) with E172K, D173R, E175K
T3 sequence (P08172 1-466 D103A): T2 sequence (P08172 1-466) with D103A
The experiment in a line: Effect of gallamine on the binding of [3H]NMS to purified hetero-oligomers. Conditions: [3H]NMS 10 nM; 21 hr at 30°C.

For assay [5], the system named is M2 receptor in Sf9 membranes. The following applies: cited from earlier work.
In assay [6] the target is T4, M2 receptor monomers purified from Sf9 cells (Homo sapiens, UniProt P08172).
T4 sequence (P08172 1-466): T2 sequence (P08172 1-466)
Format: binding.

Assay [7] has as its target T4, M2 receptor monomers purified from Sf9 cells. The experiment in a line: Effect of allosteric modulators on the binding of [3H]NMS to purified monomers.
Assay [8] has as its system M2 receptors (alanine for aspartic acid at position 103) in HEK293 membranes. Conditions: cited from earlier work.
Assay [9] concerns the target M2 receptor in membranes from CHO cells (Homo sapiens, UniProt P08172).
Assay [10] deals with M2 receptors extracted from porcine sarcolemmal membranes (Sus scrofa, UniProt P06199).
M2 receptors extracted from porcine sarcolemmal membranes, sequence (P06199 whole entry): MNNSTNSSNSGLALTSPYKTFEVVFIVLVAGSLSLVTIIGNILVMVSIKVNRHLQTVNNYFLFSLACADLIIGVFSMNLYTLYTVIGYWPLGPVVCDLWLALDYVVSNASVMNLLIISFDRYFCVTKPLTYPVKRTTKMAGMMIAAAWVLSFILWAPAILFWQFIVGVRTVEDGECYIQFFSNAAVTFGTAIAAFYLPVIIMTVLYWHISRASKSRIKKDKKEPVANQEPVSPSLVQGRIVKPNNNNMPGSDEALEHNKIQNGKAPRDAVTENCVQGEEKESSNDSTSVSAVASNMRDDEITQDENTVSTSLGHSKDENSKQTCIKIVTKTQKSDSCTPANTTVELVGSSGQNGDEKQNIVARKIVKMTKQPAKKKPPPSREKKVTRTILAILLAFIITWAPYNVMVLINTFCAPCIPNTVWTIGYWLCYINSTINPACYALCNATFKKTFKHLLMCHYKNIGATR
Where [11] appears, read: gallamine, [3H]NMS 10 nM, 21 h at 30 °C, n = 1.

In the case of “eGFP-M2 (from UniProt P08172 1-466) (receptor)”, the NMS (1 μM)-dependent increase in the FRET efficiency between FlAsH and mCherry of the binding-deficient sensor in CHO cells that display eGFP, FlAsH and mCherry (percentage points) in assay [1] turned out to be 5.3.
Turning to `C[N+](C)(C)CCOC(N)=O` [carbachol], the “∆Eapp, mean change in FRET efficiency ± S.D.” value in assay [2] is −21.6 ± 11.2%. Also, in assay [3], the “Fluorescence lifetime (τ)” value is given as 2.5 ± 0.1 ns and the “Rotational correlation time (φ)” value is 43 ± 5 ns.
Consider `CC[N+](CC)(CC)CCOc1cccc(OCC[N+](CC)(CC)CC)c1OCC[N+](CC)(CC)CC` [gallamine], for which the “log K2 (Equation 2, n = 3)” value in [4] worked out at 4.29 ± 0.37. Further, in assay [5], the “log K1 (Equation 2), dose-dependence of kobsd/k0” value is recorded as −5.99 ± 0.31 and the “log K2 (Equation 2), dose-dependence of kobsd/k0” value was −4.35 ± 0.03. In [6], this compound had an F1 of 1.00. Moreover, in [7] (setting [11]), the F1 is 1.00 and the “nH(1)” value is reported as 1.00 ± 0.06.
With N-[^3H]methylscopolamine [[^3H]NMS], the “specific binding of radioligand” value in assay [8] was “prevent the specific binding”.
On to `O=C1C[C@@H]2OCC=C3CN4CC[C@]56c7ccccc7N1[C@H]5[C@H]2[C@H]3C[C@H]46` [strychnine], for which, in assay [9], the F2 amounted to 2.21 ± 0.16; the “nH(1)” value is 0.72 ± 0.06 and 0.98 ± 0.14 and 1.20 ± 0.07; the “nH(2)” value is 1.44 ± 0.09 and 1.07 ± 0.08. Moreover, in [10], the F2 was 1.57 and 2. In assay [7], the F1 is listed as 1.00; the “nH(1)” value is 0.62 ± 0.07 and 1.23 ± 0.07.

These data come from paper PMC4900804, “Allosteric modulation in monomers and oligomers of a G protein-coupled receptor” (eLife, 2016).
